Where a name gives a salt, the structure may show the parent alone.
Key:
[1] = test system: urinary risk of forming calcium kidney stones; test: Urinary risk of forming calcium kidney stones, study on 74 individuals with oxalocalcium kidney stones; assay type: in vivo, human; conditions: for drop of the risk of forming calcium stones: 15 days after treatment start, citrate 6.48 g/day, phytate 120 mg/day, individuals with oxalocalcium kidney stones
Procedure: These individuals have been divided into three groups: 19 individuals with kidney stones (Group I), 38 individuals with kidney stones (Group II) and 17 individuals with kidney stones (Group III). The urinary risk to form calcium kidney stones was evaluated for each individual before being subjected to any pharmacological treatment.
15 days after treatment starting, the urinary risk of forming calcium kidney stones was evaluated again for each individual.

[2] = Urinary excretion of phytate after dietary intake; assay type: in vivo
[3] = cited from earlier work

maximum urinary excretion as share of the total intake ([2]; diet supplemented with products rich in phytates) | intake above which the excreted amount in urine does not increase ([2]; urinary excretion, dose-dependent up to this intake) | Compound | drop of the risk of forming calcium stones [1] [%] | effect on urine pH ([1]; treatment of calcium kidney stones, compared with citrate) | effect on bioavailability of oligoelements such as Zn(II) and Fe(III) ([3]; doses in which maximum excretions are produced) | toxicity ([3]; megadose of 8.8 g/day)
 |  | O=C(O)CC(O)(CC(=O)O)C(=O)O [citrate, potassium citrate, reference compound] | 52 |  |  | 
1-5% | 20.9 mg/kg of body weight | O=P(O)(O)O[C@H]1[C@H](OP(=O)(O)O)[C@@H](OP(=O)(O)O)[C@H](OP(=O)(O)O)[C@@H](OP(=O)(O)O)[C@H]1OP(=O)(O)O [phytate, inositol hexaphosphate] | 50 | does not cause increases of the urine pH | do not affect the bioavailability | does not produce any toxicity

— US20060141122A1 (Universitat De Les Illes Balears and Industrias Agricolas …, priority 1999, published 2006)
